Source: patent US20250051762A1, “PLATFORM USING DNA-ENCODED SMALL MOLECULE LIBRARIES AND RNA SELECTION TO DESIGN SMALL MOLECULES THAT TARGET RNA” (University of Florida Research Foundation, Incorporated, priority 2021, published 2025)

How the values were obtained:
[1] = target: pri-miR-27a; experiment: Competitive MST binding assay with unlabeled miR-27a precursor; design: species or system human; conditions: 100 nM compound, Cy5-labeled Drosha site model
Method: To measure the affinity of 9 for the 5′GAG/3′CCC loop in the context of pri-miR-27a, a competitive binding assay was used with a constant concentration of compound (100 nM) and the Cy5-labeled model of pri-miR-27a's Drosha site, and varying concentrations of unlabeled miR-27a precursor as reported by miRBase. (35) That is, the miR-27a precursor competes with the Cy5-labeled model of pri-miR-27a's Drosha site for binding 9. […] Thus, the compounds identified by using DEL-2DCS can bind avidly to biologically relevant RNA targets identified by Inforna.
For competitive binding assays, both WT and mutant pri-miR-27a RNAs were transcribed as previously described (see Table S6 for sequences). (11) The RNA was purified by gel electrophoresis and folded in 1× Binding Buffer at final concentration of 750 nM by heating at 60° C. for 5 min and then slowly cooling to room temperature. […] The resulting data were analyzed by SigmaPlot and fitted by Equation 2 to yield the competitive dissociation constant (Kd competitive).
where F is the concentration of fluorescence-labeled RNA; unbound and bound refers to the thermophoresis signal at completely unbound and bound state of RNA, respectively; c is the concentration of the compound; f (c) is the thermophoresis signal at compound concentration of c; Kd is the dissociation constant. […]

[2] = tested on: pri-miR-27a; experiment: RT-qPCR of pri- and mature miR-27a in MDA-MB-231 TNBC cells; assay type: cell-based, human; conditions: MDA-MB-231, RT-qPCR
Method: Cell lines. Compounds were tested in MDA-MB-231 TNBC cells (HTB-26, ATCC), LNCaP metastatic prostate cancer cells (gifted from Junli Luo lab), MCF-7 (HTB-22, ATCC) breast cancer cells, HeLa cervical adenocarcinoma cells (CCL-2, ATCC), and MCF-10a, a model of healthy breast epithelial cells (CRL-10317, ATCC).
Cell culture and compound treatment. All cells were maintained at 37° C. with 5% CO2. MDA-MB-231 and LNCaP cells were cultured in RPMI 1640 medium with L-glutamine & 25 mM HEPES (Corning) supplemented with 10% (v/v) fetal bovine serum (FBS; Sigma) and 1× (v/v) Antibiotic-Antimycotic solution (Corning). MCF-7 and HeLa cells were cultured in DMEM medium with 4.5 g/L glucose (Corning), supplemented with 10% FBS, 1× (v/v) Glutagro (Corning), and 1× (v/v) Antibiotic-Antimycotic solution. MCF10a cells were cultured in DMEM/F12 50/50 with L-glutamine & 15 mM HEPES (Corning), supplemented with 10% FBS, 20 ng/mL human epidermal growth factor (Pepro Tech Inc.), […] hydrocortisone (Pfaltz & Bauer), 100 ng/mL cholera toxin (Sigma-Aldrich), 10 μg/mL insulin (Sigma-Aldrich), and 1× (v/v) Antibiotic-Antimycotic solution.
MCF-10a cells were transfected with plasmids to express pri-miR-27a and mutant pri-miR-27a in 12- or 24-well plates with Lipofectamine 2000 per the manufacturer's protocol. For treatment of compounds, stocks were diluted in growth medium and added to cells for 48 h. The miRCURY miR-27a LNA inhibitor (QIAGEN, Cat #339121) was used as a positive control by diluting in growth medium to a final concentration of 1 nM. The miRCURY LNA Negative Control (QIAGEN, Cat #YI00199007-DDA) was used as a negative control, which has also diluted in growth medium to a final concentration of 1 nM.
Analysis of mRNA abundance: Each cell line was grown as a monolayer in 12- or 24-well plates and treated as described in “Cell culture and compound treatment”. After 48 h, the cells were lysed, and total RNA was harvested using a Zymo Quick RNA Miniprep Kit per the manufacturer's protocol. To measure the abundance of mature miRNAs, approximately 250 ng of total RNA was reverse transcribed using the High Flex Buffer provided in a miScript II RT Kit (Qiagen) per the manufacturer's protocol (10 μL total reaction volume). For pri-miRNAs and mRNA, approximately 300 ng of total RNA was reverse transcribed using a qScript cDNA synthesis kit (10 μL total reaction volume, Quanta BioSciences). For all types of RNAs, 2 μL of the RT reaction was used for qPCR using SYBR Green Master Mix and a QuantStudio™ 5 Real-Time PCR System. Relative abundance of mature miRNAs was calculated by normalizing to RNU6, and relative abundance for pri-miRNAs and mRNAs was calculated by normalizing to 18S ribosomal RNA, using the […]. (12)

C#CCN(CC(N)=O)C(=O)C[C@H](Cc1c[nH]c2ccccc12)NC(=O)[C@@H]1C[C@H](NC(=O)Cn2c(=O)[nH]c3ccccc3c2=O)CN1 [Compound 9]
Kd [1]: 40 ± 30 nM | inhibition of miR-27a (comparison of 5, 7, 9, 10) [2]: inhibited miR-27a to a greater extent than 5 and 7 | pri-miR-27a levels ([2]; 48 h): increased | IC50 ([2]; 48 h, read-out: IC50 for reduction of mature miR-27a levels): ~1000 nM
